Measured values taken from patent US12370167B2, “Blood-brain barrier permeability regulator and use thereof” (ZHEJIANG UNIVERSITY, priority 2019, dated 2025).

Columns and labels:
[1] = system: brain microvascular endothelial cells bEnd.3; experiment: Transmembrane resistance of physiological blood-brain barrier Transwell model, SC79 dose dependence; assay type: cell-based; settings: SC79 0, 5, 10 μg/mL; 24 hours; n=5
Protocol: A Transwell model of brain microvascular endothelial cells bEnd.3 was used to mimic the physiological blood-brain barrier. SC79 at different concentrations (0, 5 μg/mL, 10 μg/mL) was applied to the Transwell chamber. After 24 hours, the cell transmembrane resistance was detected by a cell resistance meter (n=5).
Brain microvascular endothelial cells bEnd.3 were used as model cells of a blood-brain barrier. 0.5 mL suspension of well-grown bEnd.3 cells was inoculated in the chamber of a 12-well Transwell plate with a pore size of 0.4 μm at a cell density of 1×10^5/well. 1.5 mL of fresh culture medium was supplemented in the outer chamber. The culture medium was refreshed every other day. Incubation was continued for 15 days at 37° C. and 5% CO2. When the cell transmembrane resistance value was greater than 150 ohm·cm^2 (Ω·cm^2), it may be regarded that a model of physiological blood-brain barrier was obtained.
A protein kinase B activator SC79 at different concentrations (0, 5 μg/mL, 10 μg/mL) was added into the Transwell chamber in the model of physiological blood-brain barrier. After 24 hours of the drug action, the Transwell chamber with bEnd.3 cells grown was transferred to another 12-well plate, and washed with PBS for 3 times. […] After the cells were equilibrated at 37° C. for 15 minutes, the cell transmembrane resistance was detected by a cell resistance meter.

[2] = system: blood-brain barrier permeability; experiment: Evans blue permeation into the brain after SC79; assay type: in vivo, BABL/c nude mice
Protocol: FIG. 10: In vivo regulation of increase in the blood-brain barrier permeability and increase in the amount of Evans blue permeated into the brain by SC79. SC79 was injected into tail veins of tumor-bearing animals at an administration dose of 5 mg/kg and 10 mg/kg, respectively. After 24 hours, an Evans blue solution was injected into tail veins at an administration dose of 5 mg/kg. After 4 hours, the intact brain of the nude mice was taken by cardiac perfusion.
FIG. 11: In vivo time-dependent regulation of increase in the blood-brain barrier permeability by SC79. SC79 was injected into tail veins of tumor-bearing animals at an administration dose of 5 mg/kg and 10 mg/kg, respectively. After 0 hour, 0.5 hour, and 24 hours, an Evans blue solution was injected into tail veins at an administration dose of 5 mg/kg. After 4 hours, the intact brain of the nude mice was taken by cardiac perfusion.
(§1) Male BABL/c nude mice (20+2 g) were used as the model animals. SC79 diluted with 0.2% injection grade Tween 80 solution was injected into tail veins at an administration dose of 5 mg/kg, 10 mg/kg. After 24 hours, an Evans blue solution was injected into tail veins at an administration dose of 5 mg/kg. After 4 hours, the intact brain of the nude mice was taken by cardiac perfusion. The distribution intensity of Evans blue in the brain tissue was qualitatively observed with a small animal live imaging instrument.
as §1, with “nude mice (20±2 g) were” for “nude mice (20+2 g) were”, “mg/kg. After 0.5 hour, and after 24 hours,” for “mg/kg. After 24 hours,”

[3] = system: neurons; settings: mouse model of permanent local cerebral ischemia; cited from earlier work

Structure (SMILES): CCOC(=O)C1=C(N)Oc2ccc(Cl)cc2C1C(C#N)C(=O)OCC (centres unmarked) [SC79]
- cell transmembrane resistance [1]: dose-dependent regulation of transmembrane resistance
- amount of Evans blue permeated into the brain ([2]; SC79 5 mg/kg, 10 mg/kg tail vein, Evans blue after 24 hours, vs tumor-bearing control group): increased
- amount of Evans blue permeated into the brain ([2]; SC79 tail vein, Evans blue 0.5 hour after SC79): increased
- amount of Evans blue permeated into the brain ([2]; SC79 tail vein, Evans blue 24 hours after SC79): the highest
- survival of neurons [3]: increases the survival of neurons
